Consider 4 molecules from paper PMC13075795, “A dual-threshold system relying on multiple c-di-GMP metabolic enzymes controls cell fate of a cyanobacterium” (PLOS Biology, 2026).

In one data set the target is T1, CdgS (Nostoc sp. PCC 7120 = FACHB-418, UniProt A0ACD7RTW6).
T1 construct: gene all2874; full-length; pHTwinStrep vector, C-terminal twin Strep-tag kept; expressed in E. coli BL21(DE3); Strep-Tactin and SEC
T1 sequence (A0ACD7RTW6 1-330): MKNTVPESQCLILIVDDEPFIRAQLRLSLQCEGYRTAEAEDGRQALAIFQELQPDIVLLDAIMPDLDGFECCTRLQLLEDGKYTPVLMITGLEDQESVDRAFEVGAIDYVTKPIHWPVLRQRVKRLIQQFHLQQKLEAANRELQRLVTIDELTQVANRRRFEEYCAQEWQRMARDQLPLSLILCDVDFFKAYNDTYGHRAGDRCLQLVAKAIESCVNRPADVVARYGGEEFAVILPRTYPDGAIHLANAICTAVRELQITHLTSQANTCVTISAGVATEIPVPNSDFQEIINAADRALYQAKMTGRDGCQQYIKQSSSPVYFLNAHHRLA
Kind of data set: HPLC diguanylate cyclase inhibition assay (GTP consumption). The data set is classed as biochemical.

The next data set deals with T2, Alr3599 (Nostoc sp. PCC 7120 = FACHB-418, UniProt A0ACD7RVV5).
T2 construct: full-length; pHTwinStrep vector, C-terminal twin Strep-tag kept; expressed in E. coli BL21(DE3); Strep-Tactin and SEC
The description is as above. Format: biochemical.

The target in data set [1] is T3, Alr1219-ΔCT (All1219-ΔCT) (Nostoc sp. PCC 7120 = FACHB-418, UniProt A0ACD7RQN0).
T3 construct: C-terminal twin Strep-tag kept; expressed in E. coli BL21(DE3)
Described as above. Format: biochemical.

Substrate in data set [2]: Nc1nc2c(ncn2[C@@H]2O[C@H](COP(=O)(O)OP(=O)(O)OP(=O)(O)O)[C@@H](O)[C@H]2O)c(=O)[nH]1
The experiment in a line: HPLC diguanylate cyclase assay, Michaelis-Menten fit. Particulars: 3.13-200 μM GTP, 1 μM protein, 10 min, 25 °C, 50 mM Tris-HCl pH 8.0, 0.2 M NaCl, 10 mM MgCl2. The data set is classed as biochemical, Nostoc sp. PCC 7120 = FACHB-418.

The term Ki denotes the dissociation constant of the complex between target and ligand, obtained from inhibition or displacement. Lower therefore signals tighter binding. `Nc1nc2c(ncn2[C@@H]2O[C@@H]3CO[P@](=O)(O)O[C@H]4[C@@H](O)[C@H](n5cnc6c(=O)[nH]c(N)nc65)O[C@@H]4CO[P@](=O)(O)O[C@H]3[C@H]2O)c(=O)[nH]1` [c-di-GMP]: the Ki on CdgS came out at 2.42 µM; at Alr3599 it was 16 µM; in data set [1], 3.7 µM.

B1: Alr1219-ΔCT (All1219-ΔCT) (Nostoc sp. PCC 7120 = FACHB-418) (protein)
chain: HMQEELKRSKEFLQQVIDTIADPIFVKNEQHQWIVLNKAYCRFIGYPESFLVEKSDVDFFPKHEADVFRQQDELVFETQRPQENEEEFTDAYGKTHLIATKRSLHKDAAGNFFLVGVIRDITQRKIMEEELKRTAAELFRSNNELKLKEDHLRYLAYHDALTGLPNRKYFAEQLYESINWAKDNNLSLGLLFIDLDGFKQVNDSLGHEMGDRLLVVIAQRLSNSLRASDTVARLGGDEFTVILQAIPNVQVAAKVAEKILANITEPIVLNGCTAKVSVSIGISIYPETSLDPDTLLKKADAAMYRAKHLGKNRFELADRVNTEF
notes: C-terminal twin Strep-tag kept; expressed in E. coli BL21(DE3)
What is called Km is the concentration of substrate that gives half-maximal velocity. Consider B1, for which, in data set [2], the Km amounted to 20.3 ± 12.4 µM.

B2: CdgS (Nostoc sp. PCC 7120 = FACHB-418) (protein)
chain: T1 sequence (A0ACD7RTW6 1-330)
notes: full-length; pHTwinStrep vector, C-terminal twin Strep-tag kept; expressed in E. coli BL21(DE3); Strep-Tactin and SEC
On to B2, for which, in data set [2], the Km is 26.6 ± 3.5 µM.

B3: Alr3599 (Nostoc sp. PCC 7120 = FACHB-418) (protein)
chain: MSGISPYSLSKKPPVILVADDDKTIRMLLREAMEKEGYRVVEVTDGKQCLDAYEAVKPDIVLLDAMMPVMDGFTCCKQLLQIARNNLITALANLDTDSGLGNTVISRLWERTPILMITSLNDAESVDRAFEAGATDYITKPIHWAVLRQRLRRLLQQAQVYKQLEAANMALQHLANVDGLTGLANRRRFDNYLNTQWINLVQEGAPLSLILCDIDYFKFYNDQYGHPTGDICLQKVGAVLSYKAQKHQDLVARYGGEEFAVVMPYTHAKGAIYVAHAIQTSVRDLQIAHDKSAVSQHITLSMGVATITPTWESSPSDLIAAADKALYKAKESGRNRICQWEDSQ
notes: as for B2
With B3, the Km in data set [2] amounted to 84.2 ± 30.1 µM.
